# Reference: patent US20130123358A1, “Metabolic Benefits to Butyrate as a Chronic Diet Supplement” (priority 2009, published 2013)
# Experiments:
# [1] = test system: C57BL/6J mice on high fat diet; experiment: Systemic insulin sensitivity (fasting glucose, insulin, ITT, HOMA-IR) in HFD mice; type: in vivo, mouse; conditions: butyrate 5% w/w in HFD
# Experimental: ITT was conducted by intra-peritoneal (i.p.) injection of insulin (I9278, Sigma) at 0.75 U/kg body weight in mice after a 4 hour fast as previously described (15). Blood glucose was monitored in the tail vein blood using the FreeStyle blood glucose monitoring system (TheraSense, Phoenix, Ariz.).
# To test this possibility, systemic insulin sensitivity was analyzed using fasting glucose, insulin, and insulin tolerance.
# Tail vein blood was used for the glucose assay after 16 hr fasting during the period of HFD feeding. […] The insulin was determined at 16 weeks on HFD in fasting condition with Lincoplex kit (#MADPK-71k-03, Linco Research Inc., St. Charles, Mo.). […] ITT was done at 12 weeks on HFD (at 16 weeks of age). In FIGS. 2A-2C, data are presented as means±SE (N=9). *P<0.05, **P<0.001 by Student's t test. […] After an overnight fast, blood glucose and insulin were measured and used to determine insulin sensitivity through HOMA IR (IR=fasting insulin […] X fasting glucose mg/dL÷405). Values are the means±SE (N=8 mice). ** P<0.001. […] The gastrocnemius muscle was isolated after insulin (0.75 U/kg) injection in mice for 30 min and used to prepare the whole cell lysate for an immunoblot. The mice on HFD for 13 weeks were used in the signaling assay. FIG. 2F illustrates the degree of the blot signal in the panel 2E, by quantifying the signal and normalizing with protein loading. **P<0.001 (n=2).
# [2] = test system: C57BL/6J mice on high fat diet; experiment: Hyperinsulinemic-euglycemic clamp; type: in vivo, mouse; conditions: 5% butyrate in HFD 4 weeks
# Experimental: Hyperinsulinemic-euglycemic clamps were performed at the Penn State Mouse Metabolic Phenotyping Center. The clamps were conducted in C57BL/6 mice at 12 weeks of age after 4 weeks on HFD with or without butyrate supplement. Following overnight fast (˜15 hour), a 2-hour hyperinsulinemic-euglycemic clamp was conducted in awake mice with a primed (150 mU/kg body weight) and continuous infusion of human regular insulin (Humulin; Eli Lilly, Indianapolis, Ind.) at a rate of 2.5 mU/kg/min to raise plasma insulin within a physiological range (Kim et al., 2004). Blood samples (20 μl) were collected at 20 min intervals for the immediate measurement of plasma glucose concentration, and 20% glucose was infused at variable rates to maintain glucose at basal concentrations. Basal and insulin-stimulated whole body glucose turnover were estimated with a continuous infusion of [3-^3H]glucose (PerkinElmer, Boston, Mass.) for 2 hours prior to the clamps (0.05 μCi/min) and throughout the clamps (0.1 μCi/min), respectively. To estimate insulin-stimulated glucose uptake in individual tissues, 2-deoxy-D-[1-^14C]glucose (2-[^14C]DG) was administered as a bolus (10 μCi) at 75 min after the start of clamps. Blood samples were taken before, during, and at the end of clamps for the measurement of plasma [^3H]glucose, ^3H2O, 2-[^14C]DG concentrations, and/or insulin concentrations. At the end of the clamps, mice were euthanized, and tissues were taken for biochemical and molecular analysis.
# Glucose concentrations during clamps were analyzed using […] plasma by a glucose oxidase method on a Beckman Glucose Analyzer 2 (Beckman, Fullerton, Calif.). Plasma insulin concentrations were measured by ELISA using kits from Alpco Diagnostics (Salem, N.H.). Plasma concentrations of [3-^3H]glucose, 2-[^14C]DG, and ^3H2O were determined following deproteinization of plasma samples as previously described. The radioactivity of ^3H in tissue glycogen was determined by digesting tissue samples in KOH and precipitating glycogen with ethanol. For the determination of tissue 2-[^14C]DG-6-P content, tissue samples were homogenized, and the supernatants were subjected to an ion-exchange column to separate 2-[^14C]DG-6-P from 2-[^14C]DG. Rates of basal hepatic glucose production (HGP) and insulin-stimulated whole body glucose turnover were determined as the ratio of the [^3H]glucose infusion rate to the specific activity of plasma glucose at the end of the basal period and during the final 30 min of clamp, respectively (Kim et al., 2004). Insulin-stimulated rate of HGP during clamp was determined by subtracting the glucose infusion rate from whole body glucose turnover. Insulin-stimulated glucose uptake in individual tissues was assessed by determining the tissue content of 2-[^14C]DG-6-P and plasma 2-[^14C]DG profile.
# Hyperinsulinemic-euglycemic clamps were performed at the Penn State Mouse Metabolic Phenotyping Center. The clamps were conducted in C57BL/6J mice at 12 weeks of age after 4 weeks on HFD with or without a 5% butyrate supplement. Following overnight fast (˜15 hour), a 2-hour hyperinsulinemic-euglycemic clamp was conducted in awake mice with a primed (150 mU/kg body weight) and continuous infusion of human regular insulin (Humulin; Eli Lilly, Indianapolis, Ind.) at a rate of 2.5 mU/kg/min to raise plasma insulin within a physiological range (38). […]
structure (smiles),measurement,setting,value
CCCC(=O)[O-].[Na+] [sodium butyrate],insulin tolerance test (ITT) response,"[1]; 12 weeks, insulin 0.75 U/kg i.p., 30, 60, 120 and 180 min",much better response to insulin at all time points
same,"fasting insulin, lower than control",[1]; 16 weeks on HFD,50%
same,fasting glucose (HFD-induced increase),"[1]; after 10 weeks, 16 hr fasting",this increase was not observed
same,"HOMA-IR, lower than control",[1]; overnight fast,60%
same,insulin sensitivity in the liver (hepatic glucose production),[2]; clamp,also improved
same,insulin-stimulated glucose uptake in brown adipose tissue,[2]; clamp,improved
same,insulin-stimulated glucose uptake in white adipose tissue,[2]; clamp,improved
same,insulin-stimulated glucose uptake in muscle,"[2]; clamp, gastrocnemius",improved
same,"glucose infusion rate, increase",[2]; last 40 min of clamps,40%
